From US20030044399A1, “Method of treatment” (SmithKline Beecham Corporation, priority 1998, published 2003)

How the values were obtained:
Falcipain 2 = Falcipain 2 (Plasmodium falciparum, UniProt Q8I6U4); assay: Cysteine protease inhibition, progress curve method, falcipain; assay type: biochemical; conditions: 10 uM Cbz-Leu-Arg-AMC, 100 mM Na acetate pH 5.5, 5 mM cysteine
Procedure: Standard assay conditions for the determination of kinetic constants used 10 uM fluorogenic peptide substrate, Cbz-Phe-Arg-AMC for the cysteine proteases from Leishmania spp and Schistosoma Mansoni, Cbz-Leu-Arg-AMC for the cysteine proteases from Plasmodium falciparum and Trypanosoma brucei rhodesiensi, and Ac-Lys-Glu-Lys-Leu-Arg-AMC (4 uM final substrate concentration) for the cysteine protease from Trypoanosoma cruzi, and were determined in 100 mM Na acetate at pH 5.5 containing 5 mM cysteine. Stock substrate solutions were prepared at concentrations of […] in DMSO with 10 uM (4 uM for Ac-Lys-Glu-Lys-Leu-Arg-AMC) final substrate concentration in the assays. The final DMSO concentration was 2% and the final volume was 100 uL. All assays were conducted at ambient temperature. Product progress curves were generated over 20 to 30 minutes following formation of AMC product.
Potential inhibitors were evaluated using the progress curve method. Assays were carried out in the presence of variable concentrations of test compound. Reactions were initiated by addition of enzyme to buffered solutions of inhibitor and substrate. Data analysis was conducted according to one of two procedures depending on the appearance of the progress curves in the presence of inhibitors. For those compounds whose progress curves were linear, apparent inhibition constants (Ki,app) were calculated according to equation 1 (Brandt et al., Biochemitsry, 1989, 28, 140):
v=VmA/[Ka(1+I/Ki,app)+A] (1)
Where v is the velocity of the reaction with maximal velocity Vm, A is the concentration of substrate with Michaelis constant of Ka, and I is the concentration of inhibitor.
[AMC]=vsst+(v0−vss)[1−exp (−kobst)]/kobs (2)
Where [AMC] is the concentration of product formed over time t, v0 is the initial reaction velocity and vss is the final steady state rate. Values for kobs were then analyzed as a linear function of inhibitor concentration to generate an apparent second order rate constant (kobs/inhibitor concentration or kobs/[I]) describing the time-dependent inhibition. A complete discussion of this kinetic treatment has been fully described (Morrison et al., Adv. Enzymol. Relat. Areas Mol. Biol., 1988, 61, 201).
Exemplary inhibition data for the compounds used in the present method collected in accordance with the above-described procedure are listed in Table I.

Cruzain = Cruzain (Trypanosoma cruzi, UniProt P25779); assay: Cysteine protease inhibition, progress curve method, cruzain; assay type: biochemical; conditions: 4 uM Ac-Lys-Glu-Lys-Leu-Arg-AMC, 100 mM Na acetate pH 5.5, 5 mM cysteine; read-out: Cruzain Ki
Outline: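 Buffer was 100 mM sodium acetate pH 5.5 with 5 mM cysteine and 2% DMSO, at ambient temperature; reactions started with enzyme, and AMC formation was followed for 20–30 min. Substrates: Leishmania and Schistosoma, 10 uM Cbz-Phe-Arg-AMC; falcipain, 10 uM Cbz-Leu-Arg-AMC; cruzain, 4 uM Ac-Lys-Glu-Lys-Leu-Arg-AMC. Linear curves gave Ki,app; curved ones gave kobs/[I].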

Rhodazain = Rhodazain (Trypanosoma brucei rhodesiense, UniProt Q95PM0); assay: Cysteine protease inhibition, progress curve method, rhodazain; assay type: biochemical, Trypanosoma brucei rhodesiensi; conditions: Rhodazain Ki (nM), 10 uM Cbz-Leu-Arg-AMC, 100 mM Na acetate pH 5.5, 5 mM cysteine
Rhodazain, sequence (Q95PM0 entry or part of it): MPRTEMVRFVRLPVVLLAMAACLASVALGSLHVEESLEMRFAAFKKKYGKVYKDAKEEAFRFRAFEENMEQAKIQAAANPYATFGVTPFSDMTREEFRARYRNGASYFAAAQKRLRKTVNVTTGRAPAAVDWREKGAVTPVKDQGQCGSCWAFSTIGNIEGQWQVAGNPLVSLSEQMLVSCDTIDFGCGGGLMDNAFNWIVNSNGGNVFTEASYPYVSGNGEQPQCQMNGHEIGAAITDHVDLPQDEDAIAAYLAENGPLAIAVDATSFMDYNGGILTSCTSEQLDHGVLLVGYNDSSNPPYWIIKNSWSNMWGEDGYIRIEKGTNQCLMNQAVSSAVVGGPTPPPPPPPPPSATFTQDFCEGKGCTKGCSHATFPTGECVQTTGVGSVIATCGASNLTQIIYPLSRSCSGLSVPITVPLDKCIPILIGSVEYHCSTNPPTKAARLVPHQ

Cruzain, sequence (P25779 123-337): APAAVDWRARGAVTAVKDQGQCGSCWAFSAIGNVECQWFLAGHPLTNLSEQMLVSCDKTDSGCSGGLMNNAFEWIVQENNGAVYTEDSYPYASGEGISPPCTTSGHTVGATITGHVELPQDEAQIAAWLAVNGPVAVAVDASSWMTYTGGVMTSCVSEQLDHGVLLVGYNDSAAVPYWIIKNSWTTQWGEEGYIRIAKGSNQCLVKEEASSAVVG
Falcipain 2, sequence (Q8I6U4 244-484): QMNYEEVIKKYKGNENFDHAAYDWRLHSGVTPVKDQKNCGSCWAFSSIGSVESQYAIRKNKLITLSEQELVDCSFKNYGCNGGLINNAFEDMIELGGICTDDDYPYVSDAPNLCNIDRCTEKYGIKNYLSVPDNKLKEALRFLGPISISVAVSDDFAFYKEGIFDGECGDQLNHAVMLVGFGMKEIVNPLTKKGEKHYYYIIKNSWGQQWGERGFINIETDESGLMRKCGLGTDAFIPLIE

| SMILES | Ki (Falcipain 2) [nM] | Ki (Cruzain) [nM] | Ki (Rhodazain) [nM] |
| --- | --- | --- | --- |
| CC(C)C[C@@H](NC(=O)c1cc2ccccc2o1)C(=O)N[C@@H]1CCCN(S(=O)(=O)c2cccc[n+]2[O-])CC1=O [Example 45] | 5.7 | 4.1 | 2.8 |
| COc1cccc2cc(C(=O)N[C@@H](CC(C)C)C(=O)N[C@H]3CCCN(S(=O)(=O)c4ccc(Cl)cc4)CC3=O)oc12 [Example 133, 7-Methoxy-benzofuran-2-carboxylic acid-{(S)-1-[1-(4-chloro-benzenesulfonyl)-3-oxo-azepan-4-ylcarbamoyl]-3-methyl-butyl}-amide] | 3.4 | – | – |
| O=C(N[C@@H](CC1CCCCC1)C(=O)N[C@H]1CCCN(S(=O)(=O)c2cccc[n+]2[O-])CC1=O)c1ccc(-c2cccc(C(F)(F)F)c2)o1 [Example 169, 5-(3-Trifluoromethyl-phenyl)-furan-2-carboxylic acid {(S)-2-cyclohexyl-1-[3-oxo-1-(1-oxy-pyridine-2-sulfonyl)-azepan-4-ylcarbamoyl]-ethyl}-amide] | 43 | – | – |
| COc1ccc(S(=O)(=O)N2CCCC(NC(=O)C(CC(C)C)NC(=O)c3ccc4c(c3)OCO4)C(=O)C2)cc1 (stereo in doubt) [Example 73, Benzo[1,3]dioxole-5-carboxylic acid {(S)-1-[1-(4-methoxy-benzenesulfonyl)-3-oxo-azepan-4-ylcarbamoyl]-3-methyl-butyl}-amide] | 5.2 | – | – |
| CC(C)C[C@@H](NC(=O)c1cc2cc(OCCN3CCOCC3)ccc2o1)C(=O)N[C@@H]1CCCN(C(=O)Nc2ccccc2)CC1=O [Example 5, 4-((S)-4-Methyl-2-{[5-(2-morpholino-4-yl-ethoxy)-benzofuran-2-carbonyl]amino}-pentanoylamino)-3-oxo-azepane-1-carboxylic acid phenylamide] | 34 | – | – |
| [2H]C1(NC(=O)C(CC(C)C)NC(=O)c2cc3ccccc3o2)CCCN(S(=O)(=O)c2ccccn2)C([2H])([2H])C1=O [Example 100, Benzofuran-2-carboxylic acid {(S)-3-methyl-1-[(2,2′,4-tridueterio)-3-oxo-1-(pyridine-2-sulfonyl)-azepan-4-ylcarbamoyl]-butyl}amide] | 6.4 | – | 2.5 |
| CC(C)C[C@@H](NC(=O)c1ccc2cc[nH]c2c1)C(=O)N[C@@H]1CCCN(S(=O)(=O)c2ccccn2)CC1=O (stereo in doubt) [Example 58, 1H-Indole-6-carboxylic acid {(S)-3-methyl-1-[3-oxo-1-(pyridine-2-sulfonyl)-azepan-4-ylcarbamoyl]-butyl}amide] | 7.1 | – | 3.1 |
| CC(C)C[C@@H](NC(=O)c1cc2cc(OCCN3CCOCC3)ccc2o1)C(=O)NC1CCCN(C(=O)Cc2cccc(-c3ccccn3)c2)CC1=O (stereo partly drawn) [Example 3, 5-(2-morpholino-4-yl-ethoxy)-benzofuran-2-carboxylic acid ((S)-3-methyl-1-{3-oxo-1-[2-(3-pyridin-2-yl-phenyl)acetyl]-azepan-4-ylcarbamoyl}-butyl)amide] | 3 | – | – |
| CC(C)C[C@H](NC(=O)c1ccc(-c2cccc(C(F)(F)F)c2)o1)C(=O)N[C@@H]1CCCN(S(=O)(=O)c2ccccn2)CC1=O [Example 66, 5-(3-Trifluoromethyl-phenyl)-furan-2-carboxylic acid {(S)-3-methyl-1-[3-oxo-1-(pyridine-2-sulfonyl)-azepan-4-ylcarbamoyl]-butyl}amide] | 10 | – | 5.1 |
| COc1ccc(S(=O)(=O)N2CCC[C@@H](NC(=O)[C@H](CC(C)C)NC(=O)c3ccc(OC)c(OC)c3)C(=O)C2)cc1 [Example 107, 3,4-Dimethoxy-N—{(S)-1-[1-(4-methoxy-benzenesulfonyl)-3-oxo-azepan-4-ylcarbamoyl]-3-methyl-butyl}-benzamide] | 5.9 | – | – |
| CC(C)C[C@@H](NC(=O)c1ccc([N+](=O)[O-])o1)C(=O)N[C@@H]1CCCN(S(=O)(=O)c2ccccn2)CC1=O (stereo in doubt) [Example 35, 5-Nitro-furan-2-carboxylic acid {(S)-3-methyl-1-[3-oxo-1-(pyridine-2-sulfonyl)-azepan-4-ylcarbamoyl]-butyl}amide] | 96 | – | – |
| CC(C)C[C@@H](NC(=O)c1ccc(-c2cccc(C(F)(F)F)c2)o1)C(=O)N[C@@H]1CCCN(S(=O)(=O)c2cccc[n+]2[O-])CC1=O [Example 119, 5-(3-Trifluoromethyl-phenyl)-furan-2-carboxylic acid {(S)-3-methyl-1-[3-oxo-1-(1-oxy-pyridine-2-sulfonyl)-azepan-4-ylcarbamoyl]-butyl}amide] | 8.1 | – | 5.1 |
| CC(C)C[C@@H](NC(=O)c1cc2cc(OCCN3CCNCC3)ccc2o1)C(=O)N[C@@H]1CCCN(S(=O)(=O)c2ccccn2)CC1=O [Example 23, 5-(2-Piperizin-1-yl-ethoxy)-benzofuran-2-carboxylic acid {(S)-3-methyl-1-[3-oxo-1-(pyridine-2-sulfonyl)-azepan-4-ylcarbamoyl]-3-butyl}-amide] | 14 | – | – |
| COc1cccc(S(=O)(=O)N2CCC[C@H](NC(=O)[C@H](CC(C)C)NC(=O)c3cc4cccc(OC)c4o3)C(=O)C2)c1 [Example 138, 7-Methoxy-benzofuran-2-carboxylic acid-{(S)-1-[1-(3-methoxy-benzenesulfonyl)-3-oxo-azepan-4-ylcarbamoyl]-3-methyl-butyl}-amide] | 5.6 | – | – |
| CC(C)C[C@@H](NC(=O)c1cc2ccccc2s1)C(=O)N[C@@H]1CCCN(S(=O)(=O)c2cccc[n+]2[O-])CC1=O [Example 46, Benzo[b]thiophene-2-carboxylic acid {(S)-3-methyl-1-[3-oxo-1-(1-oxy-pyridine-2-sulfonyl)-azepan-4-ylcarbamoyl]-butyl}amide] | 5.3 | 6.1 | – |
| CC(C)C[C@H](NC(=O)c1cnc2ccccc2n1)C(=O)NC1CCCN(C(=O)Nc2ccccc2F)CC1=O (stereo partly drawn) [Example 217, Quinoxaline-2-carboxylic acid {(S)-1-[1-(2-fluoro-phenylcarbamol)-3-oxo-azepan-4-ylcarbamoyl]-3-methyl-butyl}-amide] | – | 11 | 6.7 |
| CC(C)C[C@@H](NC(=O)c1cc2cc(OCC[N+]3([O-])CCOCC3)ccc2o1)C(=O)N[C@@H]1CCCN(S(=O)(=O)c2ccccn2)CC1=O [Example 43, 5-(4-Oxy-morpholino-4-yl-ethoxy)-benzofuran-2-carboxylic acid {(S)-3-methyl-1-[3-oxo-1-(pyridine-2-sulfonyl)-azepan-4-ylcarbamoyl]-butyl}amide] | – | 3.6 | 4.9 |
| CC(C)C[C@@H](NC(=O)c1ccc(Br)o1)C(=O)N[C@@H]1CCCN(S(=O)(=O)c2cccc[n+]2[O-])CC1=O [Example 50, 5-Bromo-furan-2-carboxylic acid {(S)-3-methyl-1-[3-oxo-1-(1-oxy-pyridine-2-sulfonyl)-azepan-4-ylcarbamoyl]-butyl}amide] | – | 10 | 2.1 |
| Cc1oc(-c2ccccc2)nc1C(=O)N[C@H](CC(C)C)C(=O)NC1CCCN(S(=O)(=O)c2cccc[n+]2[O-])CC1=O (stereo partly drawn) [Example 117, 5-Methyl-2-phenyl-oxazole-4-carboxylic acid {(S)-3-methyl-1-[3-oxo-1-(1-oxy-pyridine-2-sulfonyl)-azepan-4-ylcarbamoyl]-butyl}amide] | 6.8 | 14 | – |
| CC(C)C[C@@H](NC(=O)c1cc2cc(OCCN3CCCCC3)ccc2o1)C(=O)N[C@@H]1CCCN(S(=O)(=O)c2ccccc2)CC1=O (stereo in doubt) [Example 9, 5-(2-Piperidin-1-yl-ethoxy)-benzofuran-2-carboxylic acid [(S)-1-(1-benzenesulfonyl-3-oxo-azepan-4-ylcarbamoyl)-3-methyl-butyl]amide] | 65 | – | – |
| COc1ccc2oc(C(=O)N[C@H](CC(C)C)C(=O)N[C@@H]3CCCN(S(=O)(=O)c4ccccn4)CC3=O)cc2c1 (single isomer, unassigned) [Example 69] | 5.6 | – | 2.2 |
